Our source for the IC50 values is BindingDB's records for doi:10.1016/j.chembiol.2003.08.010 (Brigham and Women's Hospital, 2003).

Assay [1] addresses T1, Ubiquitin carboxyl-terminal hydrolase isozyme L1 (Mus musculus, UniProt Q9R0P9).
T1 sequence (Q9R0P9 whole entry): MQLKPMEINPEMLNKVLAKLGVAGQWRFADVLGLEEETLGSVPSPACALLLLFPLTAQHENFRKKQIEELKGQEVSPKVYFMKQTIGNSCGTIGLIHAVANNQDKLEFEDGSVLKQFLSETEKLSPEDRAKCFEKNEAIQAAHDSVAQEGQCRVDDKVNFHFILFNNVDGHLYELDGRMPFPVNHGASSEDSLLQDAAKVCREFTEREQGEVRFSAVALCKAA
Nature of the assay: Inhibition Activity Assay. The note with it: pH 7.6; 25 °C. An excerpt:
(§1) Inhibition activity and selectivity for UCH-L1 and UCH-L3.

Assay [2] concerns the target T2, Ubiquitin carboxyl-terminal hydrolase isozyme L3 (Mus musculus, UniProt Q9JKB1).
T2 sequence (Q9JKB1 whole entry): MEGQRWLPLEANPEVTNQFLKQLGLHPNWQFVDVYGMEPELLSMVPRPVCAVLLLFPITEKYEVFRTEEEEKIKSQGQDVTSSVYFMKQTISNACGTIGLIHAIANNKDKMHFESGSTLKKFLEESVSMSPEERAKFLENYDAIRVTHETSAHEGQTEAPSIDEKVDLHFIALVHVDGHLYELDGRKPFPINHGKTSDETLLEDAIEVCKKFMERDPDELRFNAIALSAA
Description: Inhibition Activity Assay. The note with it: pH 7.6; 25 °C.
From the text: as §1

Regarding `CC(C)(C)OC(=O)[C@H](Cc1ccccc1)NC(=O)c1[nH]cnc1C(=O)Nc1ccc(Cl)cc1` [SMR000465882], the IC50 (as a rule, the concentration needed to halve the response being measured) in assay [1] was 16 µM; in assay [2] it was 24 µM.

Regarding `COc1ccc(-n2c(C=Cc3ccc(O)c(OC)c3)nc3ccccc3c2=O)cc1` [SMR000516541], the IC50 in assay [1] turned out to be 12 µM; in assay [2], 52 µM.

Consider `Cc1ccccc1C(=O)Nc1scc(-c2ccc(Br)cc2)c1C(=O)O`, for which the IC50 in assay [1] stood at 6 µM; in assay [2], 32 µM.
